Results published in ChEMBL document CHEMBL1144510, “Synthesis of beta-ketophosphonate analogs of glutamyl and glutaminyl adenylate, and selective inhibition of the corresponding bacterial aminoacyl-tRNA synthetases” (Bioorg Med Chem, 2007).
pKi: −log10 of the molar value.

What was measured:
[1] = Inhibition of Escherichia coli GlnRS
[2] = Inhibition of Escherichia coli GluRS
[3] = Inhibition of cytoplasmic calf liver GluRS; set-up: species or system Bos taurus
[4] = Ratio of Ki for calf liver GluRS to Ki for Escherichia coli GluRS

Row | SMILES | pKi [1] | pKi [2] | pKi [3] | Ratio Ki [4]
1 | NC(=O)CC[C@H](N)C(=O)CP(=O)(O)OC[C@H]1O[C@@H](n2cnc3c(N)ncnc32)[C@H](O)[C@@H]1O | 3.19 | 2.54 |  | 
2 | Nc1ncnc2c1ncn2[C@@H]1O[C@H](COP(=O)(O)CC(=O)[C@@H](N)CCC(=O)O)[C@@H](O)[C@H]1O | 2.55 | 4.74 | 2.59 | 145
3 | Nc1ncnc2c1ncn2[C@@H]1OC(COS(=O)(=O)NC(=O)[C@@H](N)CCC(=O)O)[C@@H](O)[C@H]1O (some centres undefined) |  | 8.55 | 7.15 | 25
